Results: patent publication US20110268789A1, “USE OF PITUITARY ADENYLATE CYCLASE-ACTIVATING POLYPEPTIDE (PACAP) AND PACAP ANALOGS AS ADJUNCTIVE TREATMENTS WITH ANTICANCER AGENTS” (priority 2008, published 2011)
Square brackets hold non-standard residues; d marks the D form. Ends that are not written are not given here.

How the values were obtained:
Male C57BL/6 mice = test: Cisplatin-induced nephrotoxicity in mice; type: in vivo, mouse; details: cisplatin 20 mg/kg i.p., FIG. 10
Method: (§1) Male C57BL/6 mice were given a single intraperitoneal injection of 20 mg/kg of cisplatin. Twenty nanomoles of PACAP38 were given intraperitoneally 1 hour before the injection of cisplatin and additional doses were given at 24 and 48 hours after the initial dose. The control group of mice was injected intraperitoneally with the same volume of saline as for the injections of cisplatin and PACAP38 on the same schedule. The mice were euthanized 24 hours after the final injection of PACAP38. Each value represents the mean plus/minus the standard error of four determinations. ***p<0.001 and **p<0.01 compared to the group treated only with cisplatin.
as §1, with “PACAP38. TNF-α was extracted from one kidney of each mouse and quantified with an enzyme-linked immunosorbent assay.” for “PACAP38.”
Male C57BL/6 mice were given a single intraperitoneal injection of 20 mg/kg of cisplatin. Twenty nanomoles of PACAP38 were given intraperitoneally 1 hour before the injection of cisplatin and additional doses were given at 24 and 48 hours after the initial dose. The control group of mice were injected intraperitoneally with the same volume of saline as for the injections of cisplatin and PACAP38 on the same schedule. The mice were euthanized 24 hours after the final injection of PACAP38, and the kidneys were removed and fixed in 10% formalin. The fixed sections were stained with hematoxylin and eosin. The sections of the kidneys from control mice show intact renal tubular epithelial cells and well-preserved brush border membranes. The kidneys from mice treated with cisplatin had extensive tubular damage, tubular dilations, intratubular debris, and intratubular casts. […] Tubular damage was more pronounced in the outer cortex in the cisplatin treated mice. The photomicrographs on the left side were made at a lower magnification (×160) than the photomicrographs on the right side (×320). The results described in FIGS. 5, 6, 7, and 8 were from the same experiment.
as §1, with “six” for “four”
as §1, with “The cytoprotective effect of PACAP38 against cisplatin-induced nephrotoxicity was also seen in a common in vivo model. Male” for “Male”, “PACAP38.” for “PACAP38. Each value represents the mean plus/minus the standard error of four determinations. ***p<0.001 and **p<0.01 compared to the group treated only with cisplatin.”

[1] = system: Jurkat human T-lymphocyte leukemia cells; test: Etoposide-induced apoptotic cell death of leukemia cells; type: cell-based; details: Jurkat cells
Method: The Jurkat human T-lymphocyte leukemia cells were cultured in RPMI 1640 medium supplemented with 10% non-inactivated fetal bovine serum. The effects of PACAP27 and PACAP38 on apoptotic cell death was assessed by the quantitative determination of cytoplasmic histone-associated DNA-fragmentation (mono- and oligonucleosomes) after exposure to etoposide for 48 hours. Each value represents the mean plus/minus the standard deviation of three determinations. **p<0.01 and *p<0.05 compared to the etoposide-treated (control) cells.

[2] = system: light-chain immunoglobulin-secreting human myeloma cells; test: Doxorubicin-induced apoptotic cell death of myeloma cells; type: cell-based
Method: (§2) The light-chain immunoglobulin-secreting human myeloma cells were cultured in RPMI 1640 medium supplemented with 10% non-inactivated fetal bovine serum and 0.05 mM 2-mercaptoethanol. The effects of PACAP38, and [Ala^16,17,D-Lys^38]PACAP38 on apoptotic cell death was assessed by the quantitative determination of cytoplasmic histone-associated DNA-fragmentation (mono- and oligonucleosomes) after exposure to doxorubicin for 48 hours. Each value represents the mean plus/minus the standard deviation of three determinations. **p<0.01 and *p<0.05 compared to the doxorubicin-treated (control) cells.
At the lowest dose tested (10^−8 M), both peptides reduced the doxorubicin-induced apoptotic cell death of these malignant plasma cells.

[3] = rat, in vivo, iv; cited from earlier work
[4] = system: MCF-7 human breast cancer cells; test: Doxorubicin-induced apoptotic cell death of breast cancer cells; type: cell-based; details: MCF-7 cells
Method: The MCF-7 human breast cancer cells were cultured in Eagle's Minimum Essential Medium supplemented with 10% non-inactivated fetal bovine serum and 0.05 mM 2-mercaptoethanol. The effects of PACAP38 and N-acetyl[Ala^16,17,D-Lys^38]PACAP38 on apoptotic cell death were assessed by the quantitative determination of cytoplasmic histone-associated DNA-fragmentation (mono- and oligonucleosomes) after exposure to doxorubicin for 48 hours. Each value represents the mean plus/minus the standard deviation of three determinations. **p<0.01 compared to the doxorubicin-treated (control) cells.
At the highest dose tested (10^−6 M), both peptides reduced the apoptotic cell death of these breast cancer cells by more than 50%.

[5] = system: rat hippocampal neuron/glia co-cultures; details: cited from earlier work
[6] = normal human volunteers and a patient with multiple myeloma; cited from earlier work
[7] = system: light-chain immunoglobulin-secreting human myeloma cells; test: Carmustine-induced apoptotic cell death of myeloma cells; type: cell-based
Method: as §2, with “[Ala^22]PACAP38” for “[Ala^16,17,D-Lys^38]PACAP38”, “carmustine” for “doxorubicin”, “carmustine-treated” for “doxorubicin-treated”

[8] = system: PC-3 human prostate cancer cells; details: nude mice, PC-3 cells; cited from earlier work
[9] = system: NCI-H838 human non-small cell lung cancer cells; details: nude mice; cited from earlier work
[10] = system: MCF-7 human breast cancer cells; details: nude mice, MCF-7 cells; cited from earlier work
HK-2 human kidney cells [11] = test: Cisplatin-induced apoptotic cell death of human renal proximal tubule epithelial cells (histone-associated DNA fragmentation); type: cell-based; details: HK-2 cells, comparable concentrations, FIG. 4
Method: (§3) The HK-2 human kidney cells were cultured in Keratinocyte-Serum Free Medium supplemented with recombinant epidermal growth factor and bovine pituitary extract. The dose-dependent inhibitory effect of PACAP38 on apoptotic cell death was assessed by the quantitative determination of cytoplasmic histone-associated DNA-fragmentation (mono- and oligonucleosomes) after exposure to cisplatin for 24 hours. Each value represents the mean plus/minus the standard error of four determinations in three replicate experiments. **p<0.01 compared to the cisplatin-treated (control) cells.
as §3, with “deviation” for “error”, “different” for “replicate”, “**p<0.01 and *p<0.05” for “**p<0.01”

HK-2 human kidney cells [12] = test: Doxorubicin-induced apoptotic cell death of human renal proximal tubule epithelial cells; type: cell-based; details: HK-2 cells, peptide added to the medium, FIG. 11
Method: The HK-2 human kidney cells were cultured in Keratinocyte-Serum Free Medium supplemented with recombinant epidermal growth factor and bovine pituitary extract. […] Each value represents the mean plus/minus the standard deviation of four determinations in three replicate experiments. **p<0.01 and *p<0.05 compared to the doxorubicin-treated (control) cells.
At the highest dose tested (10^−6 M), all three peptides reduced the apoptotic cell death of these epithelial cells by more than 60%.

L-132 human lung cells = test: Bleomycin-induced apoptotic cell death of human pulmonary epithelial cells; type: cell-based; details: L-132 cells, peptide added to the medium, FIG. 12
Method: The L-132 human lung cells were cultured in Eagle's Minimum Essential Medium supplemented with 10% fetal bovine serum. […] Each value represents the mean plus/minus the standard deviation of four determinations in three replicate experiments. **p<0.01 and *p<0.05 compared to the bleomycin-treated (control) cells.
At the highest dose tested (10^−6 M), all three peptides reduced the apoptotic cell death of these epithelial cells by more than 60%. […] Therefore, pre- and/or post-treatment of subjects undergoing bleomycin-based cancer chemotherapy with therapeutic doses of PACAP38 and/or PACAP analogs should result in a higher maximal tolerable dose of bleomycin, and an increased frequency of partial clinical responses and/or an increased number of complete remissions.

[13] = system: PC-12 rat pheochromocytoma cells; test: Cisplatin-induced apoptotic cell death of pheochromocytoma cells; type: cell-based; details: PC-12 cells
Method: The PC-12 rat pheochromocytoma cells were cultured in F-12K medium supplemented with 15% horse serum and 2.5% fetal bovine serum. The dose-dependent inhibitory effects of PACAP38 and the PACAP38 analogs on apoptotic cell death were assessed by the quantitative determination of cytoplasmic histone-associated DNA-fragmentation (mono- and oligonucleosomes) after exposure to cisplatin for 24 hours. Each value represents the mean plus/minus the standard error of four determinations. **p<0.01 and *p<0.05 compared to the cisplatin-treated (control) cells.

[D-Ser^2,Lys^38-palmitoyl]PACAP38
relative potency as cytoprotectants against cisplatin-induced impairment of kidney function (serum creatinine) (Male C57BL/6 mice): less potent

PACAP27 (HSDGIFTDSYSRYRKQMAVKKYLAAVL-NH2)
reduction in etoposide-induced apoptotic cell death ([1]; etoposide 48 hours, FIG. 15): small reduction | significance of the reduction of etoposide-induced apoptotic cell death ([1]; highest dose tested 10^−6 M): did not have a significant effect

[Ala^16,Ala^17,D-Lys^38]PACAP38 (HSDGIFTDSYSRYRKAAAVKKYLAAVLGKRYKQRVKN[dK]; ends and bridges not checked) [[Ala^16,17,D-Lys^38]PACAP38]
effect on doxorubicin-induced apoptotic cell death (dose-response) ([2]; doxorubicin 48 hours, FIG. 16): biphasic dose-response effect | effect on doxorubicin-induced apoptotic cell death ([2]; highest dose tested (10^−6 M)): small, but not significant, enhancement | effect on doxorubicin-induced apoptotic cell death ([2]; lowest dose tested (10^−8 M)): reduced

[^125I]-PACAP38
half-life in the bloodstream [3]: 5 to 6 min

N-acetyl[Ala^16,17,D-Lys^38]PACAP38
relative potency in reducing doxorubicin-induced apoptotic cell death [4]: slightly more potent than PACAP38 | reduction in doxorubicin-induced apoptotic cell death ([4]; doxorubicin 48 hours, FIG. 14): dose-dependent reduction

pituitary adenylate cyclase-activating polypeptide [PACAP]
peak of bimodal dose-response curve for prevention of gp120-induced neuronal death (lower peak) [5]: 10^−13 M | peak of bimodal dose-response curve for prevention of gp120-induced neuronal death (upper peak) [5]: 10^−10 M | untoward effect reported [6]: transient flushing

[Ala^22]PACAP38 (HSDGIFTDSYSRYRKQMAVKKALAAVLGKRYKQRVKNK; ends and bridges not checked)
effect on carmustine-induced apoptotic cell death ([7]; carmustine 48 hours, FIG. 17): enhancement | effect on carmustine-induced apoptotic cell death ([7]; highest dose tested (10^−6 M)): significantly enhanced

PACAP(6-38) (FTDSYSRYRKQMAVKKYLAAVLGKRYKQRVKNK; ends and bridges not checked; UniProt P18509 137-169, looked up, fragment) [a PACAP/VIP receptor antagonist]
growth of xenografts [8]: inhibited the growth | growth of xenografts [9]: inhibited the growth | growth of xenografts [10]: inhibited the growth

[Aib^2]PACAP38
relative effectiveness as protectants against cisplatin-induced apoptotic cell death (HK-2 human kidney cells [11]): similarly effective

[Lys^34]PACAP38 (HSDGIFTDSYSRYRKQMAVKKYLAAVLGKRYKQKVKNK; ends and bridges not checked)
reduction in doxorubicin-induced apoptotic cell death (HK-2 human kidney cells [12]): significant dose-dependent reduction | reduction in bleomycin-induced apoptotic cell death (L-132 human lung cells): significant dose-dependent reduction | reduction in cisplatin-induced apoptotic cell death ([13]; cisplatin 24 hours, FIG. 13): dose-dependent reduction | reduction of cisplatin-induced apoptotic cell death ([13]; highest dose tested (10^−6 M)): significantly reduced
